Consider three molecules from US10188647B2, “Combination therapy using P53 activator and c-Met inhibitor” (Samsung Electronics Co., Ltd., priority 2013, dated 2019).

Bounds are passed on as bounds.

Assay [1] relates to MKN45 stomach cancer cell line. The assay is described as follows: MKN45 cell proliferation after sole or combined treatment (CTG). The class given is cell-based. To be noted: 72 hours. The method, then:
The effects obtained by the co-administration of L3-1Y antibody that is a c-Met antibody prepared in the above reference example and Nutlin-3a that is a p53 activator, were tested in MKN45 stomach cancer cell line.
In particular, RPMI1640 media (GIBCO) containing 10% FBS were added to a 96-well plate, to which MKN45 stomach cancer cell line (ATCC) was seeded at 10,000 cells/well, and then incubated overnight at 37° C. On the next day, the sole treatment of 0.1 ug/ml of L3-1Y antibody, the sole treatment of 0.5 uM of Nutlin-3a (#N6287, sigma) which is a p53 activator, and the combined treatment of 0.1 ug/ml of L3-1Y antibody and 0.5 uM (micromole) of Nutlin-3a were administered to the incubated cells. After 72 hours post-administration, a CTG solution was added to the wells at 100 ul per well and after 30 min., and cell numbers were counted to measure a cell proliferation level.

In assay [2] the test system is MKN45 stomach cancer cell line. In words: Western blot of p53 and p21 expression/accumulation, MKN45 cells. In kind it is cell-based. To be noted: 24 hours. Here is the method:
(§1) The activation of cell signal transduction system after the co-administration of L3-1Y antibody that is a c-Met antibody prepared in the above reference example and Nutlin-3a that is a p53 activator, was tested in MKN45 stomach cancer cell line and Caki-1 cell line.
(§2) Particularly, RPMI1640 (for MKN45 cells) containing 10% FBS, and DMEM (for Caki-1 cells) media (GIBCO) were added to a 96-well plate, to which MKN45 cell line (ATCC) and Caki-1 cell line (both of them were all obtained from ATCC) were each seeded in an amount of […], and then incubated overnight at 37° C. On the next day, the sole treatment of L3-1Y antibody at a concentration of 0.1 ug/ml (MKN45 cells) and 5 ug/ml (Caki-1 cells), […], and the combined treatment of L3-1Y antibody at 0.1 ug/ml (MKN45 cells) and 5 ug/ml ([…], respectively) were administered. After 24 hours post-administration, c-Met inhibition and p53 activation were analyzed by western blot.

Assay [3] relates to Caki-1 cell line. On the set-up: expression of p21: dose or concentration left out as unconfirmed. To be noted: Caki-1 cells, 24 hours, western blot. The method, then: as §1, §2
The test system of assay [4] is Caki-1 cell line. The assay is described as follows: Caki-1 cell proliferation (BrdU assay), agonism of L3-1Y antibody. The class given is cell-based. To be noted: sole treatment 10 ug/ml L3-1Y, serum-free, 24 hours. Here is the method: The effects obtained by the co-administration of L3-1Y antibody that is a c-Met antibody prepared in the above reference example and Nutlin-3a that is a p53 activator, were tested in Caki-1 cell line.
Particularly, DMEM media (GIBCO) containing 10% FBS were added to a 96-well plate, to which Caki-1 cell line (ATCC) was seeded at 5,000 cells/well, and then incubated overnight at 37° C. On the next day, the media was replaced by serum-free media, which were then incubated for 24 hours. The sole treatment of 10 ug/ml of L3-1Y antibody, and the combined treatment of 0.1 ug/ml of L3-1Y antibody and 5 uM of Nutlin-3a were administered to the incubated cells. After 24 hours post-administration, a BrdU assay was conducted to measure the cell proliferation level.
For orientation: Incorporation of labelled thymidine or its analogues reports DNA synthesis.

A further assay concerns the target c-Met (Homo sapiens, UniProt P08581). In words: Specificity of expressed scFv to c-Met. In kind it is binding. To be noted: expressed scFv product.
Where [5] appears, read: sole treatment 0.5 uM Nutlin-3a.
The mark [6] stands for this setting: sole treatment 0.5 mM Nutlin-3a.

c-Met, sequence (P08581 25-1390): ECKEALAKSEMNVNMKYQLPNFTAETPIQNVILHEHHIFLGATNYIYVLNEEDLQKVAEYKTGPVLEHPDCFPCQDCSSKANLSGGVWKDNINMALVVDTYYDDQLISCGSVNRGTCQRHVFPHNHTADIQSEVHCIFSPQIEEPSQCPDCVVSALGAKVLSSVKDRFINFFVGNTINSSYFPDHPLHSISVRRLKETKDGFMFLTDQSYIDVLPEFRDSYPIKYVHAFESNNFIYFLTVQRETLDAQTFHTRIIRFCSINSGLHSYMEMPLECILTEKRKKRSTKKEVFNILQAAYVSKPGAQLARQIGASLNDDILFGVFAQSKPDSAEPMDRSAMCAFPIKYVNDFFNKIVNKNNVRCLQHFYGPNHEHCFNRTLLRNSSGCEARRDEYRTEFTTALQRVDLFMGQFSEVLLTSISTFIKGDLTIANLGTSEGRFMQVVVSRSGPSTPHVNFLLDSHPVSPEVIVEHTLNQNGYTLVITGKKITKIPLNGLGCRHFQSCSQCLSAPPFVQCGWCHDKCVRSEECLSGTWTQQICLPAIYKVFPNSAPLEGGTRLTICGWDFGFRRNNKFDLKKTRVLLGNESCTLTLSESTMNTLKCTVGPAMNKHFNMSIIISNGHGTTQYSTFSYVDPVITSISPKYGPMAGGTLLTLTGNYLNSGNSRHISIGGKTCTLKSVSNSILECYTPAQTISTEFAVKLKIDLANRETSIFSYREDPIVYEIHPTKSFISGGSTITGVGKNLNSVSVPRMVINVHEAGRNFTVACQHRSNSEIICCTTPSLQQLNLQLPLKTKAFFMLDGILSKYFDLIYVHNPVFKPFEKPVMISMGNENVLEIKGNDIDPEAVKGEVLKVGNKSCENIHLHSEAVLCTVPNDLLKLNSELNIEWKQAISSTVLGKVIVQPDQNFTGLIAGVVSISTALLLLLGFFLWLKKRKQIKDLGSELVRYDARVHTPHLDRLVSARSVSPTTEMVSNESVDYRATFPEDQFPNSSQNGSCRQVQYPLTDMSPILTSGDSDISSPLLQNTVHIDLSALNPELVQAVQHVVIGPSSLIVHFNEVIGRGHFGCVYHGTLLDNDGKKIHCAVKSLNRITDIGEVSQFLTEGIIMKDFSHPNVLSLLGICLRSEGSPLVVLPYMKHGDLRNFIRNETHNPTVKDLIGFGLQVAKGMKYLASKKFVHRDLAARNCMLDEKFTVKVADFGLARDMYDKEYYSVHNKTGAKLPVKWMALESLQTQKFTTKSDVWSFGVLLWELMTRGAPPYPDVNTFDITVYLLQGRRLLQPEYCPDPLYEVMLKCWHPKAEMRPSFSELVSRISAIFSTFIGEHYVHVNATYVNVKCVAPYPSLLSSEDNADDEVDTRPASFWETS

Regarding `COc1ccc(C2=N[C@@H](c3ccc(Cl)cc3)[C@@H](c3ccc(Cl)cc3)N2C(=O)N2CCNC(=O)C2)c(OC(C)C)c1` [Nutlin-3a], the “suppressive effects of cell proliferation” value in assay [1] (setting [5]) is given as “did not show suppressive effects of cell proliferation”. Further, the “expression of p21” value (in assay [2] (setting [5]); with Caki-1 cell line [3] (sole treatment)) was “accumulated” in each case. Also, the p53 accumulation result (in assay [2] (setting [6]); with Caki-1 cell line [3] (setting [6])) was “accumulated” in each case.

B1: L3-1Y: anti c-Met antibody: huAbF46-H4-A1 heavy chain variable region, human IgG2 hinge and constant region, kappa light chain (antibody)
heavy: EVQLVESGGGLVQPGGSLRLSCAASGFTFTDYYMSWVRQAPGKGLEWLGFIRNKANGYTTEYSASVKGRFTISRDNSKNTLYLQMNSLRAEDTAVYYCARDNWFAYWGQGTLVTVSSASTKGPSVFPLAPCSRSTSESTAALGCLVKDYFPEPVTVSWNSGALTSGVHTFPAVLQSSGLYSLSSVVTVPSSNFGTQTYTCNVDHKPSNTKVDKTVERKCCVECPPCPAPPVAGPSVFLFPPKPKDTLMISRTPEVTCVVVDVSHEDPEVQFNWYVDGVEVHNAKTKPREEQFNSTFRVVSVLTVVHQDWLNGKEYKCKVSNKGLPAPIEKTISKTKGQPREPQVYTLPPSREEMTKNQVSLTCLVKGFYPSDIAVEWESNGQPENNYKTTPPMLDSDGSFFLYSKLTVDKSRWQQGNVFSCSVMHEALHNHYTQKSLSLSPGK
light: DIQMTQSPSSLSASVGDRVTITCKSSQSLLASGNQNNYLAWYQQKPGKAPKMLIIWASTRVSGVPSRFSGSGSGTDFTLTISSLQPEDFATYYCQQSYSRPYTFGQGTKVEIKRTVAAPSVFIFPPSDEQLKSGTASVVCLLNNFYPREAKVQWKVDNALQSGNSQESVTEQDSKDSTYSLSSTLTLSKADYEKHKVYACEVTHQGLSSPVTKSFNRGEC
Regarding B1, the “suppressive effects of cell proliferation” value in assay [1] (sole treatment 0.1 ug/ml L3-1Y) was “about 10%”. In the assay with Caki-1 cell line [4], the “promoted cell proliferation as compared to the media-only control” value is recorded as no less than 20%.

B2: scFv of huAbF46: scFv with structure VH-linker-VL from heavy and light chain variable regions of huAbF46 antibody (protein)
scFv: EVQLVESGGGLVQPGGSLRLSCAASGFTFTDYYMSWVRQAPGKGLEWLGFIRNKANGYTTEYSASVKGRFTISRDNSKNTLYLQMNSLRAEDTAVYYCARDNWFAYWGQGTLVTVSSGLGGLGGGGSGGGGSGGSSGVGSDIQMTQSPSSLSASVGDRVTITCKSSQSLLASGNQNNYLAWHQQKPGKAPKMLIIWASTRVSGVPSRFSGSGSGTDFTLTISSLQPEDFATYYCQQSYSAPLTFGQGTKVEIKR
As to B2, in the assay with c-Met, the “specificity to c-Met” value was “exhibit specificity to c-Met”.
